Results as given in PubChem BioAssay AID1963873 (Molecular Pharmacology Branch, DTP, NCI, 2024).

Test system: 276233-004-R-J1-PDC KRAS spheroids with HUVEC/MSC, viability
Assay: Anticancer human tumor 276233-004-R-J1-PDC patient-derived colon adenocarcinoma cell line growth inhibition [KRAS2]
Conditions: for viability, T/C: stronger effect = lower value; for IC50: curve of first compound
From the text: Multicellular complex tumor spheroid response to RAS pathway inhibitors in combination with a targeted agents in patient-derived cell lines with oncogenic KRAS variants from multiple cancer types
A high-throughput screen of multi-cell type tumor spheroids was designed to identify active combinations of targeted small molecules and KRAS pathway inhibitors. Complex spheroids include a stromal component modeled by human endothelial cells (HUVEC) and fibroblasts modeled by human mesenchymal stem cells (MSCs). The concentration ranges selected for each drug and investigational agent were based upon clinically achievable concentrations if the clinical Cmax of the agent was known.
Compounds. The drugs and investigational agents: BI-3406 (NSC825286), BAY-293 (NSC824723), batoprotafib (TNO155; NSC825523), sotorasib (AMG 510; NSC818433), MRTX1257 (NSC819558), elimusertib (BAY 1895344; NSC800525), molibresib (GSK525762; NSC774829), temuterkib (LY3214996; NSC803410), venetoclax (NSC766270), alisertib (NSC759677), olaparib (NSC753686), talazoparib (NSC767125), erdafitinib (NSC781556), ipatasertib (NSC767898), cabozantinib (NSC761068), nintedanib (NSC756659), abemaciclib (NSC768073), docetaxel (NSC628503), trametinib (NSC758246), and sapanisertib (NSC764658) were obtained from the National Cancer Institute (NCI) Developmental Therapeutics Program Chemical Repository. The FDA-approved anticancer drug set is available from the Developmental Therapeutics Program. […] The stock solutions were prepared in dimethyl sulfoxide (DMSO, Sigma-Aldrich, St. Louis, MO, cat. D2650) at 800-fold the tested concentration and stored at -70 degrees C prior to their use. All drugs and investigational agents were tested over a range starting from a high concentration at or near the clinical Cmax and decreasing in half-log increments. If the clinical Cmax for an agent had not been determined, the highest concentration tested was 10 microM.
Cell Culture. All cells were maintained in an incubator at 37 degrees C and 5% CO2 with 95% humidity. The PDC lines were cultured according to standard operating procedures established by the NCI PDMR (https://pdmr.cancer.gov/sops/default.htm). Briefly, all PDCs were thawed and cultured in Matrigel-coated flasks prepared with a working solution of 1X Ham's F-12 nutrient mix, without supplementation (Invitrogen, Waltham, MA, cat. 11765054), 100 U/mL penicillin-streptomycin (Invitrogen, cat. 15140122), and 2.5% Matrigel (Corning Inc., Corning, NY, cat. 354248) for the first three passages. All PDCs were cultured in complete DMEM/F-12 media containing advanced DMEM/F-12 (Invitrogen, cat. 12634028), 4.9% defined fetal bovine serum, heat inactivated (HyClone Laboratories Inc., Logan, UT, cat. SH30070.03HI), 389 ng/mL hydrocortisone (Sigma-Aldrich, cat. H4001), 9.7 ng/mL human EGF recombinant protein (Invitrogen, cat. PHG0313), 23.4 microg/mL adenine (Sigma-Aldrich, cat. A2786), 97.3 U/mL penicillin-streptomycin (Invitrogen, cat. 15140122), 1.9 mM L-glutamine (Invitrogen, cat. 25030081), and 9.7 microM Y-27632 dihydrochloride (Tocris Bioscience, Bristol, United Kingdom, cat. 1254). The PDCs were cultured in complete DMEM/F12 media without 9.7 microM Y-27632 dihydrochloride for at least two passages prior to the screen. The established cell line HOP-62 was cultured in RPMI 1640 medium, HEPES (Invitrogen, cat. 22400105) with 10% defined fetal bovine serum (HyClone Laboratories Inc., cat. SH30070.03) and 2 mM L-glutamine (Invitrogen, cat. 25030081). The pooled donor HUVEC were cultured in endothelial cell growth medium 2 (PromoCell, Heidelberg, Germany, cat. C-22011) and the hMSC were cultured in mesenchymal stem cell growth medium 2 (PromoCell, cat. C-28009). For all experiments, HUVEC and hMSC were used at passages </=5, while the malignant cell lines were used at passages </=15. […]

[1] = second compound 0.1 µM, first compound 0.0316 µM
[2] = second compound 0.1 µM, first compound 0.1 µM
[3] = second compound 0.1 µM, first compound 0.316 µM
[4] = second compound 0.1 µM, first compound 1 µM
[5] = second compound 0.1 µM, first compound 3.16 µM
[6] = second compound 0.1 µM, first compound 10 µM
[7] = second compound 0.316 µM, first compound 0.0316 µM
[8] = second compound 0.316 µM, first compound 0.1 µM
[9] = second compound 0.316 µM, first compound 0.316 µM
[10] = second compound 0.316 µM, first compound 1 µM
[11] = second compound 0.316 µM, first compound 3.16 µM
[12] = second compound 0.316 µM, first compound 10 µM
[13] = second compound 1 µM, first compound 0.0316 µM
[14] = second compound 1 µM, first compound 0.1 µM
[15] = second compound 1 µM, first compound 0.316 µM
[16] = second compound 1 µM, first compound 1 µM
[17] = second compound 1 µM, first compound 3.16 µM
[18] = second compound 1 µM, first compound 10 µM
[19] = second compound 3.16 µM, first compound 0.0316 µM
[20] = second compound 3.16 µM, first compound 0.1 µM
[21] = second compound 3.16 µM, first compound 0.316 µM
[22] = second compound 3.16 µM, first compound 1 µM
[23] = second compound 3.16 µM, first compound 3.16 µM
[24] = second compound 3.16 µM, first compound 10 µM
[25] = second compound 10 µM, first compound 0.0316 µM
[26] = second compound 10 µM, first compound 0.1 µM
[27] = second compound 10 µM, first compound 0.316 µM
[28] = second compound 10 µM, first compound 1 µM
[29] = second compound 10 µM, first compound 3.16 µM
[30] = second compound 10 µM, first compound 10 µM
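Note: cells exposed to agents for seven days before viability read.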
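Throughout, for viability, T/C: 100% = DMSO vehicle control wells and lower values mean fewer viable cells.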

Row | SMILES | IC50 (second compound 0.1 µM) [µM] | IC50 (second compound 0.316 µM) [µM] | IC50 (second compound 1 µM) [µM] | IC50 (second compound 3.16 µM) [µM] | viability, T/C [1] [%] | viability, T/C [2] [%] | viability, T/C [3] [%] | viability, T/C [4] [%] | viability, T/C [5] [%] | viability, T/C [6] [%] | viability, T/C [7] [%] | viability, T/C [8] [%] | viability, T/C [9] [%] | viability, T/C [10] [%] | viability, T/C [11] [%] | viability, T/C [12] [%] | viability, T/C [13] [%] | viability, T/C [14] [%] | viability, T/C [15] [%] | viability, T/C [16] [%] | further results
1 | COc1cc(OC)cc(N(CCNC(C)C)c2ccc3ncc(-c4cnn(C)c4)nc3c2)c1 | – | – | – | – | – | – | – | – | – | – | – | – | – | – | – | – | – | – | – | – | viability, T/C (compound 0.0316 µM): 76.3% [middle of 5 runs]; viability, T/C (compound 0.1 µM): 67.4% [middle of 5 runs]; viability, T/C (compound 0.316 µM): 67% [middle of 5 runs]
2 | COc1cc(Nc2ncc3c(n2)-c2ccc(Cl)cc2C(c2c(F)cccc2OC)=NC3)ccc1C(=O)O + COc1cc2nc(C)nc(NC(C)c3cc(N)cc(C(F)(F)F)c3)c2cc1OC1CCOC1 | > 10 | > 10 | > 10 | > 10 | 79.9 | 78.9 | 74.3 | 68 | 61.6 | 57.1 | 83.3 | 69.9 | 70.9 | 69.5 | 67.2 | 54.6 | 91.7 | 67.4 | 63.5 | 68 | IC50 (second compound 10 µM): < 0.0316 µM; viability, T/C [17]: 58.4%; viability, T/C [18]: 55.2%; viability, T/C [19]: 70%; viability, T/C [20]: 60.4%; viability, T/C [21]: 56.6%; viability, T/C [22]: 54.1%; viability, T/C [23]: 74.6%; viability, T/C [24]: 57.4%; viability, T/C [25]: 29.1%; viability, T/C [26]: 37.9%; viability, T/C [27]: 30.9%; viability, T/C [28]: 21.2%; viability, T/C [29]: 31.4%; viability, T/C [30]: 17.6%
3 | Cn1nccc1Nc1nccc(-c2cc3c(s2)C(C)(C)N(CCN2CCOCC2)C3=O)n1 + C=CC(=O)N1CCN(c2nc(OCC3CCCN3C)nc3c2CCN(c2cccc4cccc(C)c24)C3)CC1CC#N | > 10 | > 10 | > 10 | 0.236 | 100 | 99.3 | 79.7 | 75.7 | 51.7 | 52.2 | 109 | 98 | 101 | 77.8 | 56.4 | 57.4 | 101 | 109 | 87.2 | 77 | IC50 (second compound 0.0316 µM): 4.83 µM; viability, T/C (second compound 0.0316 µM, first compound 0.0316 µM): 99.8%; viability, T/C (second compound 0.0316 µM, first compound 0.1 µM): 108%; viability, T/C (second compound 0.0316 µM, first compound 0.316 µM): 86.1%; viability, T/C (second compound 0.0316 µM, first compound 1 µM): 75.9%; viability, T/C (second compound 0.0316 µM, first compound 3.16 µM): 51.7%; viability, T/C (second compound 0.0316 µM, first compound 10 µM): 44.5%; viability, T/C [17]: 55.3%; viability, T/C [18]: 65.9%; viability, T/C [19]: 68.7%; viability, T/C [20]: 46.7%; viability, T/C [21]: 46.7%; viability, T/C [22]: 47.5%; viability, T/C [23]: 21.2%; viability, T/C [24]: 10.9%
4 | COc1cc2nccc(Oc3ccc(NC(=O)C4(C(=O)Nc5ccc(F)cc5)CC4)cc3)c2cc1OC + CC1OCC2(CCN(c3cnc(Sc4ccnc(N)c4Cl)c(N)n3)CC2)C1N | > 10 | > 10 | > 10 | > 10 | 78.9 | 77.1 | 85.4 | 75.1 | 80 | 77.6 | 73.5 | 64.7 | 69.5 | 72.7 | 81.9 | 59.6 | 65 | 67.4 | 60.7 | 75.7 | IC50 (second compound 10 µM): 3.58 µM; viability, T/C [17]: 70.9%; viability, T/C [18]: 52.7%; viability, T/C [19]: 55.5%; viability, T/C [20]: 67.9%; viability, T/C [21]: 55.1%; viability, T/C [22]: 61.7%; viability, T/C [23]: 72.2%; viability, T/C [24]: 44%; viability, T/C [25]: 71.8%; viability, T/C [26]: 59.7%; viability, T/C [27]: 56.7%; viability, T/C [28]: 53%; viability, T/C [29]: 58.2%; viability, T/C [30]: 42.6%
